In ChEMBL document CHEMBL4321842 (J Med Chem, 2019):

How the values were obtained:
[1] = target: T1, Discoidin domain-containing receptor 2 (Homo sapiens, UniProt Q16832); experiment: Inhibition of DDR2 (unknown origin) expressed in human HEK293 cells incubated for 2 hrs followed by NanoBRET NanoGlo Substrate addition by NanoBRET assay; type: cell-based
T1 sequence (Q16832 whole entry): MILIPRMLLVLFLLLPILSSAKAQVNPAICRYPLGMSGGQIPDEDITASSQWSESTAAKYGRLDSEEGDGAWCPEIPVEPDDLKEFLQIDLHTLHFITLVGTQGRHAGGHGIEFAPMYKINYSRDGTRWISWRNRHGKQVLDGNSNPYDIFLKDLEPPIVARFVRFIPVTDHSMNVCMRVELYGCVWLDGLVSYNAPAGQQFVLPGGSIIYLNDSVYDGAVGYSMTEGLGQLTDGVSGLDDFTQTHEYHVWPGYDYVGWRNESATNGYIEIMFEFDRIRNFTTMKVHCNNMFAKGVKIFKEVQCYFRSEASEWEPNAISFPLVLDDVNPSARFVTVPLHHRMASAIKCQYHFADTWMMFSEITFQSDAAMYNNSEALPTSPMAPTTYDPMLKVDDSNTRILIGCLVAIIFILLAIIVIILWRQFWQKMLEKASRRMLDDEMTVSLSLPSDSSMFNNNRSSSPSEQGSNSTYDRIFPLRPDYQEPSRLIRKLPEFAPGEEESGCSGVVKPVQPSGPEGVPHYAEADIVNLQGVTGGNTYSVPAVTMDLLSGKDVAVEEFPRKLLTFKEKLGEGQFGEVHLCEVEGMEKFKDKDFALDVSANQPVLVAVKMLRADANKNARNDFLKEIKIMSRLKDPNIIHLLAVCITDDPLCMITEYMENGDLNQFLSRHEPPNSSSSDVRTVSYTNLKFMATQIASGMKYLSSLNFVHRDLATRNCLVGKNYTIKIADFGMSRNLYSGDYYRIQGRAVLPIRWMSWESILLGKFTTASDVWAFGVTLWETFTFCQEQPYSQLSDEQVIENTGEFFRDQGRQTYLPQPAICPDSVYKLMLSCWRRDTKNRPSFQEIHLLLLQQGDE

[2] = target: T2, Mitogen-activated protein kinase 11 (Homo sapiens, UniProt Q15759); experiment: Inhibition of recombinant human His-tagged P38beta MAPK (1 to 364 residues) expressed in Escherichia coli incubated for 60 mins by [gamma-33P]ATP based scintillation counting method
T2 sequence (Q15759 whole entry, the tested form may be a part): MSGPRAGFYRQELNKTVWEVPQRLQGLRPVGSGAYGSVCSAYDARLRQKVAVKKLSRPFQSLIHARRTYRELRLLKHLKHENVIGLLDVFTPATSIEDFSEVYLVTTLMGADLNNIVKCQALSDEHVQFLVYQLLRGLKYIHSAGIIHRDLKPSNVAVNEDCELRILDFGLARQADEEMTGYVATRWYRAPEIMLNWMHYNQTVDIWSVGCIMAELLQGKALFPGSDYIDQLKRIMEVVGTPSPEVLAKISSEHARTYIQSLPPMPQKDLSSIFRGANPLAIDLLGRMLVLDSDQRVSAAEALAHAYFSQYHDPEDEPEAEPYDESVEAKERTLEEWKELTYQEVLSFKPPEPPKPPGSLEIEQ

[3] = Metabolic stability in human liver microsomes assessed as compound degradation incubated for 50 mins by LC/MS analysis; type: ADME, Microsome
[4] = target: Epithelial discoidin domain-containing receptor 1 (Homo sapiens, UniProt Q08345); experiment: Inhibition of DDR1 (unknown origin) expressed in human HEK293 cells incubated for 2 hrs followed by NanoBRET NanoGlo Substrate addition by NanoBRET assay; type: cell-based
Sequence of Epithelial discoidin domain-containing receptor 1 (Q08345 whole entry, the tested form may be a part): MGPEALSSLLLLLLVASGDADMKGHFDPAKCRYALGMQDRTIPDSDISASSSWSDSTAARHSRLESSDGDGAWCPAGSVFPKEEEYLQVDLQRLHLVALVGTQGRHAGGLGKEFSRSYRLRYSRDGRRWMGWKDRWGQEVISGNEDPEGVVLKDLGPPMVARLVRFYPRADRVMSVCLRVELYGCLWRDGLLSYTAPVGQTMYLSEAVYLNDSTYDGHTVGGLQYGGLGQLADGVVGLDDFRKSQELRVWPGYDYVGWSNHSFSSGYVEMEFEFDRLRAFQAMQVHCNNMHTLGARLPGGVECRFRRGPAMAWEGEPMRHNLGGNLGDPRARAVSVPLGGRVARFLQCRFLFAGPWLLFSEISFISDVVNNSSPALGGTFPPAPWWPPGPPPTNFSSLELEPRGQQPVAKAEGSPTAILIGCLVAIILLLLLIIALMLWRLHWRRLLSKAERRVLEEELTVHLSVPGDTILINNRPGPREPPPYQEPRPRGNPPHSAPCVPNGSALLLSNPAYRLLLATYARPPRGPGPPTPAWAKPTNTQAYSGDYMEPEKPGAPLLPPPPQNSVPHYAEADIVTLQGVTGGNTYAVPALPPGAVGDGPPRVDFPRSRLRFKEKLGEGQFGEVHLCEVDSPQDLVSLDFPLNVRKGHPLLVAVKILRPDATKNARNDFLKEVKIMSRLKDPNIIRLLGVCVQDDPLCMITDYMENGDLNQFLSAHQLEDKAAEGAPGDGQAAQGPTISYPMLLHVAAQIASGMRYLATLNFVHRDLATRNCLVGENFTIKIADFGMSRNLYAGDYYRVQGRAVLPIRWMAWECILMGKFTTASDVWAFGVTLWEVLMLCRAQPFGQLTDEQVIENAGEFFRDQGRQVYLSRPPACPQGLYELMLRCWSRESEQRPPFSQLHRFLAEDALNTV

[5] = target: T3, Mast/stem cell growth factor receptor Kit (Homo sapiens, UniProt P10721); experiment: Inhibition of wild-type human partial length KIT (I571 to D952 residues) expressed in bacterial expression system at 1 uM by Kinomescan method relative to control
T3 sequence (P10721 whole entry, the tested form may be a part): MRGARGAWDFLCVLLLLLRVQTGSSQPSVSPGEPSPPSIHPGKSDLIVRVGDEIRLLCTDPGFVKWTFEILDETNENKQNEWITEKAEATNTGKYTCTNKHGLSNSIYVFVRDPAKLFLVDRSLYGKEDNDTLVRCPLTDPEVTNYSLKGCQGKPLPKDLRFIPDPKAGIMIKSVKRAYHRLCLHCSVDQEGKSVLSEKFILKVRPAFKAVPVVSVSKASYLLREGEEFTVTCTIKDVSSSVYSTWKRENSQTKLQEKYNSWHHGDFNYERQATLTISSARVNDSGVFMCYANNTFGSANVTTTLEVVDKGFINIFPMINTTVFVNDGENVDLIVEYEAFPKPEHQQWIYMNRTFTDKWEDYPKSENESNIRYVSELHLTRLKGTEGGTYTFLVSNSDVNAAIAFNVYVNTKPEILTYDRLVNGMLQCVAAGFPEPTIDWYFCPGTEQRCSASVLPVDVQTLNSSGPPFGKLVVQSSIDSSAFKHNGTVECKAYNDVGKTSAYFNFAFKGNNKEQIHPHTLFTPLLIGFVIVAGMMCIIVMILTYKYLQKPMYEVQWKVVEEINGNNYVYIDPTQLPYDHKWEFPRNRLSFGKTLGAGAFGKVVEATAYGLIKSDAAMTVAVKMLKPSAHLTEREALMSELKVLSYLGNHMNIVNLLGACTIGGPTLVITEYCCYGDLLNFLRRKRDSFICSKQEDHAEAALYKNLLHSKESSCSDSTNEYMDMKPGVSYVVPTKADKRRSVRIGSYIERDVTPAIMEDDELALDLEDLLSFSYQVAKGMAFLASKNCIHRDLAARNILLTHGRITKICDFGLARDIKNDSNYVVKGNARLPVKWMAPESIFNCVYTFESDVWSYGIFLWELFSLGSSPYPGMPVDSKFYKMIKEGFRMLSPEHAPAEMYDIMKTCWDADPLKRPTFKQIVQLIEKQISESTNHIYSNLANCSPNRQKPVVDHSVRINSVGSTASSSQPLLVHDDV

[6] = target: T4, Discoidin domain-containing receptor 2 (Homo sapiens) (UniProt Q16832); experiment: Inhibition of wild-type human partial length DDR2 (V555 to E855 residues) expressed in mammalian expression system at 1 uM by Kinomescan method relative to control
T4 sequence (whole entry): T1 sequence (Q16832 whole entry)

[7] = target: T5, Ribosomal protein S6 kinase alpha-6 (Homo sapiens, UniProt Q9UK32); experiment: Inhibition of RSK4 kinase domain 1 (unknown origin) expressed in human HEK293 cells incubated for 2 hrs followed by NanoBRET NanoGlo Substrate addition by NanoBRET assay; type: cell-based
T5 sequence (Q9UK32 whole entry, the tested form may be a part): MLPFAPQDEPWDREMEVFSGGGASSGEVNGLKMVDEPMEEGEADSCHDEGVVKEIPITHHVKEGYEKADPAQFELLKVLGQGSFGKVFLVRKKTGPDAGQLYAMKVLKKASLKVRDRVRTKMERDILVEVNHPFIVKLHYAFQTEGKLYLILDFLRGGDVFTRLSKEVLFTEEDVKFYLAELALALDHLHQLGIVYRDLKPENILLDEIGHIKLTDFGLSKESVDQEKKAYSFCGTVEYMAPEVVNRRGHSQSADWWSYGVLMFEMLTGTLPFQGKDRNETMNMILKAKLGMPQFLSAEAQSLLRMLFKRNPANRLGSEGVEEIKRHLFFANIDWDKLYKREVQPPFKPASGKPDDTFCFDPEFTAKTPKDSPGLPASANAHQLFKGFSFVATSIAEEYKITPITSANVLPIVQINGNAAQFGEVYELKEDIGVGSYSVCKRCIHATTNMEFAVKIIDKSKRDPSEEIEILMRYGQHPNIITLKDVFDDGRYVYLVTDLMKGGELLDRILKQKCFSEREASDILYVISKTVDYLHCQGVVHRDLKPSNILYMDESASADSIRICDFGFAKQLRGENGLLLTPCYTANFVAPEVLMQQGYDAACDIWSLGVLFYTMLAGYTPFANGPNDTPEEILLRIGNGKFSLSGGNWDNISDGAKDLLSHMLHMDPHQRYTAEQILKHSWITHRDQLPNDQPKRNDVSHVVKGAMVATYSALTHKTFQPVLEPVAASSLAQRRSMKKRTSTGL

Blood [8] = experiment: Inhibition of LPS-induced TNFalpha production in human whole blood at 10 uM preincubated for 15 mins followed by LPS stimulation and measured after 2.5 hrs by ELISA relative to control; type: functional
[9] = target: T2, Mitogen-activated protein kinase 11; conditions: 1 uM
Description: Inhibition of wild-type human full length p38-beta (M1 to Q364 residues) expressed in bacterial expression system at 1 uM by Kinomescan method relative to control

[10] = target: T2, Mitogen-activated protein kinase 11; experiment: Inhibition of p38-beta (unknown origin) expressed in human HEK293 cells incubated for 2 hrs followed by NanoBRET NanoGlo Substrate addition by NanoBRET assay; type: cell-based
[11] = Metabolic stability in human liver microsomes assessed as compound degradation incubated for 240 mins by LC/MS analysis; type: ADME, Microsome; conditions: read-out: Drug degradation
[12] = target: T6, Myosin light chain kinase family member 4 (Homo sapiens, UniProt Q86YV6); experiment: Inhibition of MYLK4 (unknown origin) expressed in human HEK293 cells incubated for 2 hrs followed by NanoBRET NanoGlo Substrate addition by NanoBRET assay; type: cell-based
T6 sequence (Q86YV6 whole entry): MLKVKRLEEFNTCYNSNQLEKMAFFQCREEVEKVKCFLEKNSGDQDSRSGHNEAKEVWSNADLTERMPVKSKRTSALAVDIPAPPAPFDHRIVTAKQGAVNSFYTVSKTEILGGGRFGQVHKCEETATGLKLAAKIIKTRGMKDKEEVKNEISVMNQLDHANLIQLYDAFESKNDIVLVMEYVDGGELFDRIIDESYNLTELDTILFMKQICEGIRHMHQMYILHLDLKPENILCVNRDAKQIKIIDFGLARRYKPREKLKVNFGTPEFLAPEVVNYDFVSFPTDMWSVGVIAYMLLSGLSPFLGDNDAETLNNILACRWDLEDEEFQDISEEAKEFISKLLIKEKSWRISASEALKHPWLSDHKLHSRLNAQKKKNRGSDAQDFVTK

[13] = target: T7, Myosin light chain kinase family member 4 (Homo sapiens) (UniProt Q86YV6); experiment: Inhibition of wild-type human partial length MYLK4 (V79 to S380 residues) expressed in bacterial expression system at 1 uM by Kinomescan method relative to control
T7 sequence (whole entry): T6 sequence (Q86YV6 whole entry)

[14] = target: Mitogen-activated protein kinase kinase kinase 20 (Homo sapiens) (UniProt Q9NYL2); experiment: Inhibition of wild-type human partial length ZAK (M1 to L331 residues) expressed in bacterial expression system at 1 uM by Kinomescan method relative to control
Sequence of Mitogen-activated protein kinase kinase kinase 20 (Homo sapiens) (Q9NYL2 whole entry, looked up, the tested form may be a part): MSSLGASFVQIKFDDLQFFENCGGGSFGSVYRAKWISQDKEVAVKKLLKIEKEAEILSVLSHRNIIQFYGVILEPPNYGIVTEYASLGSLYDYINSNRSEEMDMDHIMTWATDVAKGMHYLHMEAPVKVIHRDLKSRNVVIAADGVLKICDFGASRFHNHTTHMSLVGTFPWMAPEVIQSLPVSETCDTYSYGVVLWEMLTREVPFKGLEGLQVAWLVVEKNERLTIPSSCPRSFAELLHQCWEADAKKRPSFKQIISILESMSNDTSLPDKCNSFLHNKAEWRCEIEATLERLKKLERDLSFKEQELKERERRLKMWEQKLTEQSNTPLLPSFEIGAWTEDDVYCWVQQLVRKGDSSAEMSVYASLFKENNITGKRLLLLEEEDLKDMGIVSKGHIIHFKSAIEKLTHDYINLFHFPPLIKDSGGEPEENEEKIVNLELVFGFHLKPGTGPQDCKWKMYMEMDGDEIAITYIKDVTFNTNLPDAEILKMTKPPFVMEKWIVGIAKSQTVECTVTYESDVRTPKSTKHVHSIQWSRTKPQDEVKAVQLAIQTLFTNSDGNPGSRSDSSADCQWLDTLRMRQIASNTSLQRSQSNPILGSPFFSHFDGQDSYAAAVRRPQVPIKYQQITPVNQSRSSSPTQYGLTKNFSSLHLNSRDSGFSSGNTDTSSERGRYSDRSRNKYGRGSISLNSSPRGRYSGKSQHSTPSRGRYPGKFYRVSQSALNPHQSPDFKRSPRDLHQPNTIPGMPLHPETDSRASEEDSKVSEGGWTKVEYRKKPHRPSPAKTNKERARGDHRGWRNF

[15] = target: T5, Ribosomal protein S6 kinase alpha-6; experiment: Inhibition of wild-type human partial length N-terminal RSK4 kinase domain 1 (M1 to E397 residues) expressed in mammalian expression system at 1 uM by Kinomescan method relative to control
[16] = target: T3, Mast/stem cell growth factor receptor Kit; experiment: Inhibition of KIT (unknown origin) expressed in human HEK293 cells incubated for 2 hrs followed by NanoBRET NanoGlo Substrate addition by NanoBRET assay; type: cell-based
Blood [17] = experiment: Inhibition of LPS-induced TNFalpha production in human whole blood preincubated for 15 mins followed by LPS stimulation and measured after 2.5 hrs by ELISA; type: functional, tissue-based
[18] = target: Mitogen-activated protein kinase 14 (Homo sapiens, UniProt Q16539); experiment: Inhibition of full-length human C-terminal NanoLuc-tagged P38 alpha MAPK expressed in human HEK293T cells incubated for 2 hrs followed by NanoBRET NanoGlo Substrate addition by NanoBRET assay; type: cell-based
Sequence of Mitogen-activated protein kinase 14 (Q16539 whole entry): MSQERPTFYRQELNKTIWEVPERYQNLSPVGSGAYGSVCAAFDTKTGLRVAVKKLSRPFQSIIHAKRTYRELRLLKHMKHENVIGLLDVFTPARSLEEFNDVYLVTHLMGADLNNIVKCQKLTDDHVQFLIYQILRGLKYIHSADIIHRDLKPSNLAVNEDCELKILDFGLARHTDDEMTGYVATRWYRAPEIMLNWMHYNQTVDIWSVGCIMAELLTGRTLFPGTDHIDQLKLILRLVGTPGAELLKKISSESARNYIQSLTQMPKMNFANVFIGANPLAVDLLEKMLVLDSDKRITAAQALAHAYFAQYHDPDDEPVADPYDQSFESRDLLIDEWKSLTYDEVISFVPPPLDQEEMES

| SMILES | IC50 [1] [µM] | IC50 [2] [µM] | Stability [3] | IC50 [4] [µM] | inhibition [5] [%] | inhibition [6] [%] | IC50 [7] [µM] | inhibition at 10 µM (Blood [8]) [%] | inhibition [9] [%] | IC50 [10] [µM] | metabolised at 4 h [11] [%] | IC50 [12] [µM] | inhibition [13] [%] | inhibition [14] [%] | inhibition [15] [%] | IC50 [16] [µM] | IC50 (Blood [17]) [µM] | IC50 [18] [µM] |
| --- | --- | --- | --- | --- | --- | --- | --- | --- | --- | --- | --- | --- | --- | --- | --- | --- | --- | --- |
| Nc1c(C(=O)NCc2ccc(C(=O)NCCCC3CCCCC3)cc2)cnn1-c1ccccc1 [SR-318] | 5.6 | 0.032 | Stable | 3 | 7.7 | 31 | 14 | 97.7 | 0 | 0.01 | 38.2 | 10 | 31 | 8.8 | 29 | 8.5 |  |  |
| O=C(NCCCC1CCCCC1)c1ccc(CNC(=O)c2cnn(-c3ccccc3)c2C(F)(F)F)cc1 [SR-321] | 0.22 |  |  | 13 |  |  | > 20 | 6.35 |  | 11 |  | > 20 |  |  |  | > 20 | > 10 | 13 |
